Data taken from paper PMC12470716, “Inhibitory Effect of Fucoidan Analogs on Highly Metastatic Gastric Cancer Cells via Galectin-4 Inhibition” (International Journal of Molecular Sciences, 2025).

What was measured:
galectin-4 = target: T1, galectin-4 (Homo sapiens, UniProt P56470); experiment: SPR (Biacore X100, galectin-4 immobilised on CM5), multi cycle; conditions: 25 °C, HBS-EP pH 7.4; LNT 31.3–500 μM; read-out: equilibrium binding constant
T1 construct: gene LGALS4; full-length, His-tagged (pQE-9), E. coli M15[pREP4], TALON purified; two CRDs (N-CRD and C-CRD), approx. 36 kDa; amine-coupled on CM5 chip for SPR
T1 sequence (P56470 1-323): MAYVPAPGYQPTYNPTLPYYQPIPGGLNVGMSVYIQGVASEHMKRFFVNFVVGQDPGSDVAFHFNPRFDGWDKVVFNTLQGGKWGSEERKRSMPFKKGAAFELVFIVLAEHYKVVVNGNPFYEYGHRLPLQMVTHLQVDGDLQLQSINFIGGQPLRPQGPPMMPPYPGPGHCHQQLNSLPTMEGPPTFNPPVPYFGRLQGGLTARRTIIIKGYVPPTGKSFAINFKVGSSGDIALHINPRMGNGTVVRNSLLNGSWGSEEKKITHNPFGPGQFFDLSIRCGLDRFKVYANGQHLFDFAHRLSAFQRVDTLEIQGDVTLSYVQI

MKN45 = experiment: cells; set-up: ATP-based cell viability assay, growth inhibition of MKN45 in FCS-free medium, 3 days; conditions: Homo sapiens, MKN-45, 72 h; read-out: Growth inhibition (IC50) MKN45
Experimental: For growth inhibition experiments, MKN45 or NUGC4 cells were grown in 96-well plates at 5 × 10^3/well on the previous day, and the cell supernatant was discarded and washed once with phosphate-buffered saline (PBS). Fucoidan or fucoidan analog solutions diluted in FCS-free Advanced RPMI 1640 medium were added to the cells and cultured for another 3 days. Cell proliferation was measured using the ATP-based cell viability assay. We first measured the inhibitory activities of all synthesized fucoidan analogs 1–14 to narrow down the candidate. […] Next, the inhibitory activity of fucoidan analogs on the proliferation of MKN45 cells was measured (Figure 3A). […] From the viewpoint of growth and binding inhibitory activities, we narrowed it down to 2, 3, 10, 12, and 14 for further investigation.

NUGC4 WT = experiment: cells; set-up: ATP-based cell viability assay, growth inhibition of wild-type NUGC4 in FCS-free medium, 3 days; conditions: Homo sapiens, NUGC-4, 72 h; read-out: Growth inhibition (IC50) NUGC4 WT
Experimental: For growth inhibition experiments, MKN45 or NUGC4 cells were grown in 96-well plates at 5 × 10^3/well on the previous day, and the cell supernatant was discarded and washed once with phosphate-buffered saline (PBS). Fucoidan or fucoidan analog solutions diluted in FCS-free Advanced RPMI 1640 medium were added to the cells and cultured for another 3 days. Cell proliferation was measured using the ATP-based cell viability assay. Fucoidan analogs inhibited the proliferative ability of NUGC4 cells, but minimal inhibitory activity was observed against KO cells (Figure 3B).

Row | Kd (galectin-4) [µM] | IC50 (MKN45) [µM] | SMILES | IC50 (NUGC4 WT) [µM]
1 | 200 |  | CC(=O)N[C@H]1[C@H](O[C@H]2[C@@H](O)[C@@H](CO)O[C@@H](O[C@H]3[C@H](O)[C@@H](O)C(O)O[C@@H]3CO)[C@@H]2O)O[C@H](CO)[C@@H](O)[C@@H]1O[C@@H]1O[C@H](CO)[C@H](O)[C@H](O)[C@H]1O (some centres unmarked) [LNT] | 
2 |  | > 100 | CCCCCCCCOC1OC(C)C(OC2OC(C)C(OC3OC(C)C(OC4OC(C)C(O)C(O)C4O)C(O)C3O)C(O)C2O)C(O)C1O (centres unmarked) [compound 13, 13] | 
3 |  | > 100 | CCCCCCCCOC1O[C@@H](C)[C@@H](O)[C@@H](O[C@@H]2O[C@@H](C)[C@@H](O)[C@@H](O[C@@H]3O[C@@H](C)[C@@H](O)[C@@H](O[C@@H]4O[C@@H](C)[C@@H](O)[C@@H](OS(=O)(=O)O)[C@@H]4OS(=O)(=O)O)[C@@H]3OS(=O)(=O)O)[C@@H]2OS(=O)(=O)O)[C@@H]1OS(=O)(=O)O (some centres unmarked) [compound 3, fucoidan analog 3] | > 50
4 |  | > 100 | CCCCCCCCOC1OC(C)C(O)C(OC2OC(C)C(O)C(OC3OC(C)C(O)C(OC4OC(C)C(O)C(O)C4O)C3O)C2O)C1O (centres unmarked) [compound 4, 4] | 
5 |  | > 100 | CCCCCCCCO[C@H]1O[C@@H](C)[C@@H](O[C@@H]2O[C@@H](C)[C@@H](O[C@@H]3O[C@@H](C)[C@@H](O[C@@H]4O[C@@H](C)[C@@H](O)[C@@H](O)[C@@H]4OS(=O)(=O)O)[C@@H](O)[C@@H]3OS(=O)(=O)O)[C@@H](O)[C@@H]2OS(=O)(=O)O)[C@@H](O)[C@@H]1OS(=O)(=O)O [compound 12, fucoidan analog 12] | > 50
6 |  |  | CCCCCCCCO[C@H]1O[C@@H](C)[C@@H](O[C@@H]2O[C@@H](C)[C@@H](O[C@@H]3O[C@@H](C)[C@@H](O[C@@H]4O[C@@H](C)[C@@H](OS(=O)(=O)O)[C@@H](OS(=O)(=O)O)[C@@H]4OS(=O)(=O)O)[C@@H](OS(=O)(=O)O)[C@@H]3OS(=O)(=O)O)[C@@H](OS(=O)(=O)O)[C@@H]2OS(=O)(=O)O)[C@@H](OS(=O)(=O)O)[C@@H]1OS(=O)(=O)O [compound 10, fucoidan analog 10] | < 50
